How the values were obtained:
Assay in all cases: In vitro antifungal activity, microbroth dilution MIC
Assay type in all cases: cell-based
Conditions in all cases: RPMI-1640, 35° C., 4 to 48 hours, no growth observed
[1] = test system: Torulopsis glabrata B. 16205
Method in brief: (§1)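 Broth microdilution adapted from NCCLS M27, in RPMI-1640 with 0.165 M MOPS, pH 7.0. Yeast or mould inoculum at 2×10^3 CFU/ml was mixed 1:1 with DMSO-derived compound solutions (200 to 0.10 μg/ml before mixing) and incubated at 35 °C for 4 to 48 h. MIC was the concentration showing no growth.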

[2] = test system: Candida pseudotropicalis K. 11658
Method in brief: as §1

[3] = test system: Trichophyton mentagrophytes A. 9129
Method in brief: as §1

Candida krusei K. 11655 = test system: Candida krusei K. 11655
Method in brief: as §1

[4] = test system: Aspergillus niger A. 16404
Method in brief: as §1

[5] = test system: Candida albicans IFO. 1385
Method in brief: as §1

[6] = test system: Candida tropicalis A. 13803
Method in brief: as §1

[7] = test system: Cryptococcus neoformans B. 42419
Method in brief: as §1

Candida albicans C1-2 = test system: Candida albicans C1-2
Method in brief: as §1

[8] = test system: Cryptococcus neoformans IFM. 40092
Method in brief: as §1

[9] = test system: Trichophyton mentagrophytes B. 32663
Method in brief: as §1

[10] = test system: Candida albicans A. 10231
Method in brief: as §1

[11] = test system: Cryptococcus neoformans A. 34144
Method in brief: as §1

[12] = test system: Aspergillus furnigatus B. 19119
Method in brief: as §1

[13] = test system: Candida parapsitosis A. 7330
Method in brief: as §1

| Compound | Minimal inhibitory concentration(MIC), T. glabrata B. 16205 [1] | Minimal inhibitory concentration(MIC), C. pseudotropicalis K. 11658 [2] | Minimal inhibitory concentration(MIC), T. mentagrophytes A. 9129 [3] | Minimal inhibitory concentration(MIC), C. krusei K. 11655 (Candida krusei K. 11655) | Minimal inhibitory concentration(MIC), A. niger A. 16404 [4] | Minimal inhibitory concentration(MIC), C. albicans IFO. 1385 [5] | Minimal inhibitory concentration(MIC), C. tropicalis A. 13803 [6] | Minimal inhibitory concentration(MIC), Cry. neoformans B. 42419 [7] | Minimal inhibitory concentration(MIC), C. albicans C1-2 (Candida albicans C1-2) | Minimal inhibitory concentration(MIC), Cry. neoformans IFM. 40092 [8] | Minimal inhibitory concentration(MIC), T. mentagrophytes B. 32663 [9] | Minimal inhibitory concentration(MIC), C. albicans A. 10231 [10] | Minimal inhibitory concentration(MIC), Cry. neoformans A. 34144 [11] | Minimal inhibitory concentration(MIC), A furnigatus B. 19119 [12] | Minimal inhibitory concentration(MIC), C. parapsitosis A. 7330 [13] |
| --- | --- | --- | --- | --- | --- | --- | --- | --- | --- | --- | --- | --- | --- | --- | --- |
| FC(Oc1ccc(OCC2COC(Cn3cncn3)(c3ccc(Cl)cc3Cl)O2)cc1)=C(c1ccc(Cl)cc1)C(F)(F)F (mixture of isomers) [Ex. 122] | 12.5 µg/mL | 6.25 µg/mL | 6.25 µg/mL | 12.5 µg/mL | 100 µg/mL | 0.78 µg/mL | 25.0 µg/mL | 1.56 µg/mL | 6.25 µg/mL | 0.20 µg/mL | 3.13 µg/mL | 12.5 µg/mL | 0.78 µg/mL | 12.5 µg/mL | 6.25 µg/mL |
| FC(Oc1ccc(OCC2COC(Cn3cncn3)(c3ccc(Cl)cc3Cl)O2)cc1)=C(c1ccc(F)cc1)C(F)(F)F (mixture of isomers) [Ex. 123] | 50.0 µg/mL | 25.0 µg/mL | 6.25 µg/mL | >100 µg/mL | >100 µg/mL | 1.56 µg/mL | 100 µg/mL | 1.56 µg/mL | 12.5 µg/mL | 0.39 µg/mL | 3.13 µg/mL | 25.0 µg/mL | 1.56 µg/mL | >100 µg/mL | >100 µg/mL |
| FC(=C(c1ccccc1)C(F)(F)F)N1CCN(c2ccc(OCC3COC(Cn4ccnc4)(c4ccc(Cl)cc4Cl)O3)cc2)CC1 (mixture of isomers) [Ex. 124] | 50.0 µg/mL | >100 µg/mL | 6.25 µg/mL | >100 µg/mL | >100 µg/mL | 1.56 µg/mL | >100 µg/mL | 1.56 µg/mL | 25.0 µg/mL | 0.39 µg/mL | 3.13 µg/mL | 50.0 µg/mL | 1.56 µg/mL | >100 µg/mL | >100 µg/mL |
| Cc1cccc(C(=C(F)N2CCN(c3ccc(OCC4COC(Cn5ccnc5)(c5ccc(Cl)cc5Cl)O4)cc3)CC2)C(F)(F)F)c1 (mixture of isomers) [Ex. 125] | 50.0 µg/mL | >100 µg/mL | 6.25 µg/mL | >100 µg/mL | >100 µg/mL | 1.56 µg/mL | 100 µg/mL | 3.13 µg/mL | 25.0 µg/mL | 0.39 µg/mL | 3.13 µg/mL | 25.0 µg/mL | 1.56 µg/mL | >100 µg/mL | >100 µg/mL |
| CCc1ccc(C(=C(F)N2CCN(c3ccc(OCC4COC(Cn5ccnc5)(c5ccc(Cl)cc5Cl)O4)cc3)CC2)C(F)(F)F)cc1 (mixture of isomers) [Ex. 127] | >100 µg/mL | 1.56 µg/mL | 12.5 µg/mL | 3.13 µg/mL | >100 µg/mL | 3.13 µg/mL | >100 µg/mL | 0.78 µg/mL | >100 µg/mL | 0.39 µg/mL | 3.13 µg/mL | >100 µg/mL | 0.78 µg/mL | >100 µg/mL | 3.13 µg/mL |
| CC(C)(C)c1ccc(C(=C(F)N2CCN(c3ccc(OCC4COC(Cn5ccnc5)(c5ccc(Cl)cc5Cl)O4)cc3)CC2)C(F)(F)F)cc1 (mixture of isomers) [Ex. 128] | >100 µg/mL | 1.56 µg/mL | 12.5 µg/mL | 3.13 µg/mL | >100 µg/mL | 1.56 µg/mL | >100 µg/mL | 0.78 µg/mL | >100 µg/mL | ≦0.10 μg/ml | 6.25 µg/mL | >100 µg/mL | 0.78 µg/mL | >100 µg/mL | 3.13 µg/mL |
| Cc1ccc(C(=C(F)N2CCN(c3ccc(OCC4COC(Cn5ccnc5)(c5ccc(Cl)cc5Cl)O4)cc3)CC2)C(F)(F)F)cc1C (mixture of isomers) [Ex. 129] | >100 µg/mL | 1.56 µg/mL | 12.5 µg/mL | 3.13 µg/mL | >100 µg/mL | 3.13 µg/mL | >100 µg/mL | 0.78 µg/mL | >100 µg/mL | 0.39 µg/mL | 3.13 µg/mL | >100 µg/mL | 0.78 µg/mL | >100 µg/mL | 3.13 µg/mL |
